Test results reported in patent US10428080B2, “TBK/IKK inhibitor compounds and uses thereof” (Merck Patent GmbH, priority 2015, dated 2019).
Counter-ions that a name gives are not always drawn.

How the values were obtained:
TBK1 = molecular target: T1, TBK1 (Homo sapiens, UniProt Q9UHD2); assay: TBK Biochemical Assay; details: read-out: TBK1 IC50
T1 sequence (Q9UHD2 1-729): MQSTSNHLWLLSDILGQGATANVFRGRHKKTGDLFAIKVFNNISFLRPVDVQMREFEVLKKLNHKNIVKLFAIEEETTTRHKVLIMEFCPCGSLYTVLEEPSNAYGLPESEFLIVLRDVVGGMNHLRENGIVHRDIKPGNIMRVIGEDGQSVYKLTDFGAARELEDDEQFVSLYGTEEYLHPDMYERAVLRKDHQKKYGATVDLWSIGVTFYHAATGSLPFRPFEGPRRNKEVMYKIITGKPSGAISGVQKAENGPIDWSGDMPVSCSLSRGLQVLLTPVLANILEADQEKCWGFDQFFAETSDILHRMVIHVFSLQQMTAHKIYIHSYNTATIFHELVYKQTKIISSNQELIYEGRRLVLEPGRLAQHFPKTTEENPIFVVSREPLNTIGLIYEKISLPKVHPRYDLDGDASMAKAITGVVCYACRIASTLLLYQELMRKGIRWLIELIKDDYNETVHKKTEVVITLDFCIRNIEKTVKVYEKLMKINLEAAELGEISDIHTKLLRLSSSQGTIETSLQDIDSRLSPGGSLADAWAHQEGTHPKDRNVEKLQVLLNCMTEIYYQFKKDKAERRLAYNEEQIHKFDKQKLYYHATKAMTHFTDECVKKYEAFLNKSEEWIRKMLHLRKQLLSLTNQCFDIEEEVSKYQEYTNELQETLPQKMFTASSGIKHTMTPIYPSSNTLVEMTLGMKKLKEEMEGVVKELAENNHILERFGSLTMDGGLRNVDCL
Procedure, shortened: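 Caliper LabChip mobility-shift readout of substrate and product after 90 min of TBK1 reaction at 25° C and stop-buffer addition. Compounds tested in 1:4 serial dilution over 10 points from 30 uM final at 1% DMSO; staurosporine 10 uM final defines full inhibition.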

IKKε = molecular target: T2, IKKε (Homo sapiens, UniProt Q14164); assay: IKKe Biochemical Assay; details: read-out: IKKε IC50
T2 sequence (Q14164 1-716): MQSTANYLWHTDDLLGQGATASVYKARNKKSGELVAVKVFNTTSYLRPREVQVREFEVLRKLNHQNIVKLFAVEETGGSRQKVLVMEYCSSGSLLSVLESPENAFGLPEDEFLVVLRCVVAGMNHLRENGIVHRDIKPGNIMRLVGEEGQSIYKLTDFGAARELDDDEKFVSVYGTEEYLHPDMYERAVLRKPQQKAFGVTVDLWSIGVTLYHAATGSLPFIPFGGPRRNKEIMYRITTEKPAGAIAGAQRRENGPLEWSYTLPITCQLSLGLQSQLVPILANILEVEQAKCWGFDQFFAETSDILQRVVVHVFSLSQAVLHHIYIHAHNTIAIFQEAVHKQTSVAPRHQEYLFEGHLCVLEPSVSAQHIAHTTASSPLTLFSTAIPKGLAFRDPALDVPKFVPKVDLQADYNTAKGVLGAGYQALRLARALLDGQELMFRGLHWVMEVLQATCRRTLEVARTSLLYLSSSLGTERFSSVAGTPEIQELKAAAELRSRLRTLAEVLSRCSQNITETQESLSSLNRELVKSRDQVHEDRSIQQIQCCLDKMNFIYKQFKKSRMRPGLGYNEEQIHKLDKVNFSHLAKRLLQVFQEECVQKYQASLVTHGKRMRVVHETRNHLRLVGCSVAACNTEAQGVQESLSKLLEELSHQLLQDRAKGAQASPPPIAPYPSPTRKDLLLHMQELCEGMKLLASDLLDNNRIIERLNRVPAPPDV
Procedure, shortened: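 Activity was measured as mobility-shift separation of phosphorylated from unphosphorylated substrate on a LabChip EZ Reader. Compound was titrated from 30 uM final in 10 points, 1:4 steps, with 1% DMSO, and enzyme plus substrate reacted 90 min at 25° C before stop buffer. Control wells held 10 uM staurosporine.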

Compound	IC50 (TBK1) [nM]	IC50 (IKKε) [nM]
CC1CC(Oc2ccc(-c3ccnc4cc(-c5ccc(C(=O)O)cc5)oc34)cc2C#N)CC(C)O1 (stereo not shown) [Compound 189]	> 5000	1000 to 5000
CN(C)C(=O)c1ccc(-c2cc3nccc(-c4ccc(OC5CCNCC5)c(C#N)c4)c3o2)nc1 [Compound 190]	> 5000	100 to 1000
CCOC(=O)c1ccc(-c2cc3nccc(-c4ccc(N5CC[C@@H](F)C5)c(C#N)c4)c3o2)cc1 [Compound 191, 4-{7-[3-Cyano-4-((R)-3-fluoro-pyrrolidin-1-yl)-phenyl]-furo[3,2-b]pyridin-2-yl}-benzoic acid ethyl ester]	> 5000	100 to 1000
N#Cc1cc(-c2ccnc3cc(-c4ccc(C(=O)O)cc4)oc23)ccc1Oc1ccncc1 [Compound 192, 4-{7-[3-Cyano-4-(pyridin-4-yloxy)-phenyl]-furo[3,2-b]pyridin-2-yl}-benzoic acid]	> 5000	> 5000
CN(C)C(=O)c1ccc(-c2cc3nccc(-c4ccc(NC5CCOCC5)c(C#N)c4)c3o2)cc1 [Compound 194, 4-(7-(3-cyano-4-(tetrahydro-2H-pyran-4-ylamino)phenyl)furo[3,2-b]pyridin-2-yl)-N,N-dimethylbenzamide hydrochloride]	100 to 1000	100 to 1000
CC1CC(Nc2ccc(-c3ccnc4cc(-c5ccc(C(=O)N(C)C)cc5)oc34)cc2C#N)CC(C)O1 (stereo not shown) [Compound 215, 4-(7-(3-cyano-4-(2,6-dimethyl-tetrahydro-2H-pyran-4-ylamino)phenyl)furo[3,2-b]pyridin-2-yl)-N,N-dimethylbenzamide hydrochloride]	1000 to 5000	100 to 1000
CN(C)C(=O)c1ccc(-c2cc3nccc(-c4ccc(OC5CC(C)(C)NC(C)(C)C5)c(C#N)c4)c3o2)cc1 [Compound 216, 4-(7-(3-cyano-4-(2,2,6,6-tetramethylpiperidin-4-yloxy)phenyl)furo[3,2-b]pyridin-2-yl)-N,N-dimethylbenzamide]	> 5000	> 5000
CN(C)C(=O)c1ccc(-c2cc3nccc(-c4ccc(NC5C6COCC65)c(C#N)c4)c3o2)cc1 (stereo not shown) [Compound 217, 4-(7-(4-(3-oxa-bicyclo[3.1.0]hexan-6-ylamino)-3-cyanophenyl)furo[3,2-b]pyridin-2-yl)-N,N-dimethylbenzamide hydrochloride]	100 to 1000	100 to 1000
CN(C)C(=O)c1ccc(-c2cc3nccc(-c4ccc(NC5CC(C)(C)OC(C)(C)C5)c(C#N)c4)c3o2)cc1 [Compound 218, 4-(7-(3-cyano-4-(2,2,6,6-tetramethyl-tetrahydro-2H-pyran-4-ylamino)phenyl)furo[3,2-b]pyridin-2-yl)-N,N-dimethylbenzamide]	1000 to 5000	1000 to 5000
CN(C)C(=O)c1ccc(-c2cc3nccc(-c4ccc(CN5CCOCC5)c(C#N)c4)c3o2)cc1 [Compound 222, 4-(7-(3-cyano-4-(morpholinomethyl)phenyl)furo[3,2-b]pyridin-2-yl)-N,N-dimethylbenzamide]	100 to 1000	100 to 1000
CN(C)C(=O)c1ccc(-c2cc3nccc(-c4ccc(C(C)(C)N5CCOCC5)c(C#N)c4)c3o2)cc1 [Compound 223, 4-(7-(3-cyano-4-(2-morpholinopropan-2-yl)phenyl)furo[3,2-b]pyridin-2-yl)-N,N-dimethylbenzamide hydrochloride]	< 100	< 100
CN(C)C(=O)c1ccc(-c2cc3nccc(-c4cc(F)c(NC5CCOCC5)c(C#N)c4)c3o2)cc1 [Compound 224, 4-(7-(3-cyano-5-fluoro-4-(tetrahydro-2H-pyran-4-ylamino)phenyl)furo[3,2-b]pyridin-2-yl)-N,N-dimethylbenzamide hydrochloride]	100 to 1000	< 100
CN(C)C(=O)c1ccc(-c2cc3nccc(-c4cc(F)c(N(C)C5CCOCC5)c(C#N)c4)c3o2)cc1 [Compound 225, 4-(7-(3-cyano-5-fluoro-4-(methyl(tetrahydro-2H-pyran-4-yl)amino)phenyl)furo[3,2-b]pyridin-2-yl)-N,N-dimethylbenzamide hydrochloride]	100 to 1000	100 to 1000
COc1cc(C(=O)N(C)C)ccc1-c1cc2nccc(-c3ccc(NC4CCOCC4)c(C#N)c3)c2o1 [Compound 226, 4-(7-(3-cyano-4-(tetrahydro-2H-pyran-4-ylamino)phenyl)furo[3,2-b]pyridin-2-yl)-3-methoxy-N,N-dimethylbenzamide]	< 100	< 100
COc1cc(C(=O)N(C)C)ccc1-c1cc2nccc(-c3ccc(N(C)C4CCOCC4)c(C#N)c3)c2o1 [Compound 227, 4-(7-(3-cyano-4-(methyl(tetrahydro-2H-pyran-4-yl)amino)phenyl)furo[3,2-b]pyridin-2-yl)-3-methoxy-N,N-dimethylbenzamide]	< 100	< 100
COc1cc(C(=O)N(C)C)ccc1-c1cc2nccc(-c3ccc(NC4CC(C)OC(C)C4)c(C#N)c3)c2o1 (stereo not shown) [Compound 228, 4-(7-(3-cyano-4-(2,6-dimethyl-tetrahydro-2H-pyran-4-ylamino)phenyl)furo[3,2-b]pyridin-2-yl)-3-methoxy-N,N-dimethylbenzamide]	100 to 1000	< 100
COc1cc(C(=O)N(C)C)ccc1-c1cc2nccc(-c3ccc(OC4CC(C)(C)NC(C)(C)C4)c(C#N)c3)c2o1 [Compound 229, 4-(7-(3-cyano-4-(2,2,6,6-tetramethylpiperidin-4-yloxy)phenyl)furo[3,2-b]pyridin-2-yl)-3-methoxy-N,N-dimethylbenzamide]	100 to 1000	100 to 1000
COc1cc(C(=O)N(C)CCO)ccc1-c1cc2nccc(-c3ccc(NC4CCOCC4)c(C#N)c3)c2o1 [Compound 230, 4-(7-(3-cyano-4-(tetrahydro-2H-pyran-4-ylamino)phenyl)furo[3,2-b]pyridin-2-yl)-N-(2-hydroxyethyl)-3-methoxy-N-methylbenzamide]	< 100	< 100
COc1cc(C(=O)N(C)C)ccc1-c1cc2nccc(-c3ccc(O[C@H]4[C@H](C)COC[C@@H]4C)c(C#N)c3)c2o1 [Compound 232, 4-(7-(3-cyano-4-(3,5-dimethyl-tetrahydro-2H-pyran-4-yloxy)phenyl)furo[3,2-b]pyridin-2-yl)-3-methoxy-N,N-dimethylbenzamide]	< 100	< 100
COc1cc(C(=O)N(C)C)ccc1-c1cc2nccc(-c3ccc(O[C@@H]4[C@H](C)COC[C@@H]4C)c(C#N)c3)c2o1 [Compound 233, 4-(7-(3-cyano-4-(3,5-dimethyl-tetrahydro-2H-pyran-4-yloxy)phenyl)furo[3,2-b]pyridin-2-yl)-3-methoxy-N,N-dimethylbenzamide]	< 100	< 100
COc1cc(C(=O)N(C)C)ccc1-c1cc2nccc(-c3ccc(CN4CCOCC4)c(C#N)c3)c2o1 [Compound 234, 4-(7-(3-cyano-4-(morpholinomethyl)phenyl)furo[3,2-b]pyridin-2-yl)-3-methoxy-N,N-dimethylbenzamide]	< 100	< 100
COc1cc(C(=O)N(C)C)ccc1-c1cc2nccc(-c3ccc(C(C)(C)N4CCOCC4)c(C#N)c3)c2o1 [Compound 235, 4-(7-(3-cyano-4-(2-morpholinopropan-2-yl)phenyl)furo[3,2-b]pyridin-2-yl)-3-methoxy-N,N-dimethylbenzamide hydrochloride]	100 to 1000	100 to 1000
COc1cc(C(=O)N(C)C)ccc1-c1cc2nccc(-c3cc(F)c(NC4CCOCC4)c(C#N)c3)c2o1 [Compound 236, 4-(7-(3-cyano-5-fluoro-4-(tetrahydro-2H-pyran-4-ylamino)phenyl)furo[3,2-b]pyridin-2-yl)-3-methoxy-N,N-dimethylbenzamide]	< 100	< 100
